Source: patent US5079257A, “Indoloquinone compounds” (priority 1986, dated 1992)
Like-named read-outs stand apart in the source and are kept apart here.

Assays:
MCF7 breast cancer cells = test: In vitro panel of human tumour lines (TNO): MCF-7; assay type: cell-based; settings: about 72 hours; further: key: -: no inhibition of cell growth; +: total cell-kill
How it was run: (§1)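 Cells in Dulbecco's medium with 10% foetal calf serum were seeded 48 h, then exposed continuously to increasing compound concentrations (final ethanol <1%) for about 72 h at 37° in 10% CO2. Crystal violet staining after fixation; inhibiting concentration estimated qualitatively.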

lung-NSCLC tumour line = test: Colony inhibition in vitro, continuous drug exposure (Freiburg); assay type: cell-based, human
Protocol: Three indoloquinones were tested at the University of Freiburg with respect to their in vitro inhibition of colony formation of the following five human tumour cell lines: lung-NSCLC, breast, renal and two colon lines.

IgR37 cells melanoma = test: In vitro panel of human tumour lines (TNO): IgR-37; assay type: cell-based; settings: about 72 hours; further: key: -: no inhibition of cell growth; +: total cell-kill
How it was run: (§2)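 Cells (5×10^4/ml, Dulbecco's medium + 10% FCS) grafted 48 h, then continuously exposed to compound (Hanks'/ethanol, final ethanol <1%) for about 72 h at 37°C, 10% CO2. Crystal violet fixation/staining; inhibiting concentration estimated qualitatively over increasing doses.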

L1210 cells = test: Lowest active dose (L1210; bioliquid assay); assay type: cell-based; settings: Mus musculus
Description: The indoloquinones II (formula II) have been tested in respect of their cytotoxic activity against L1210 cells and R-1 cells (Rhabdomyosarcoma Cells) in a bioliquid assay at the department of oncology of the Free University of Amsterdam (Table I). In addition to this seven compounds (E.O. 1, E.O. 2, E.O. 4, E.O. 7, E.O. 9, E.O. 16 and E.O. 17) have been tested on L1210 activity in a clonogenic assay at TNO, Rijswijk. Further, the lowest active doses of the compounds E.O. 1, E.O. 2, E.O. 4 and E.O. 9 have been determined at TNO Rijswijk, according to the method described by Lamberts et al. [Oncology, 40, 301 (1983)]. (Table II). Eight indoloquinones (E.O. 1, E.O. 2, E.O. 4, E.O. 4A, E.O. 8, E.O. 9, E.O. 33 and E.O. 35) have been tested in a panel of five human tumour lines (TNO Rijswijk; Table III). From the latter group three indoloquinones (E.O. 1, E.O. 4 and E.O. 9) have been selected for a cytotoxicity study, involving five slowly growing human tumour lines (University of Freiburg; Table IV).
The lowest active doses for the compounds E.O. 1, E.O. 2, E.O. 4 and E.O. 9 were determined according to the method described by Lamberts et al. [Oncology, 40, 301 (1983)]. In this method, L1210 cells were grown in a series of wells in a culture medium and in the presence of the compound to be tested, as in the determination of L1210 activity in a bioliquid assay reported above, but the compound was present in respective wells in a different concentration, the concentrations extending over an appropriate range. After a suitable incubation period, the lowest active dose for the compound in question was determined by comparing the diameter of each of the precipitation spots with that of a control containing only the culture and the cell suspension, a smaller diameter indicating growth inhibition (Table II).

WiDr cells; colon tumour = test: In vitro panel of human tumour lines (TNO): WiDr; assay type: cell-based; settings: about 72 hours; further: key: -: no inhibition of cell growth; +: total cell-kill
How it was run: as §1

L1210 = test: In vivo L1210 experiments (TNO Rijswijk); design: species or system mice
Protocol: The in vivo L1210 experiments were carried out in male Balb/c X DBA.2 Fl hybrid mice at TNO, Rijswijk.
In these experiments also, the drugs were administered IP as suspensions in carboxymethyl cellulose […] as a single dose at the first day.

[1] = test system: T 24 cells; bladder carcinoma; test: In vitro panel of human tumour lines (TNO): T 24; assay type: cell-based; settings: about 72 hours; further: key: -: no inhibition of cell growth; +: total cell-kill
How it was run: as §2

P 388 tumour cells = test: In vivo P388 experiments (Brussels); design: species or system mice; settings: for MAX T/C: days 1 to 5
Protocol: These experiments were carried out at the Institute Jules Bordet, Brussels, on CDF, female mice. The mice were inoculated intraperitoneally (IP) with 1×10^6 P 388 tumour cells. After 24 hours, the compounds were administrated as suspensions in "Tween-80" or using saline as vehicle. Six mice were used at each dose of the compound, given on days 1 to 5 and eighteen control mice were injected with saline.

[2] = test system: A 204 cells; rhabdomyosarcoma; test: In vitro panel of human tumour lines (TNO): A 204; assay type: cell-based; settings: about 72 hours; further: key: -: no inhibition of cell growth; +: total cell-kill
How it was run: as §2

in vivo = test: in vivo; design: species or system mice; settings: mouse, IP, single dose, suspension in carboxymethyl cellulose (2%)
Protocol: The acute toxicity experiments were carried out with male C5 Black/Rij X CBA/Rij Fl hybrid mice at TNO, Rijswijk. The drugs were administrated IP as suspensions in carboxymethyl cellulose (2%) as a single dose at the first day.

[3] = Homo sapiens, read-out: colony formation treated/control (T/C), Lung

| Compound | in vitro activity score, MCF-7 (MCF7 breast cancer cells; 0.01 μg/ml) | in vitro activity score, MCF-7 (MCF7 breast cancer cells; 0.1 μg/ml) | in vitro activity score, MCF-7 (MCF7 breast cancer cells; 10 μg/ml) | activity against the lung cell line (lung-NSCLC tumour line; 0.01 μg/ml) | in vitro activity score, IgR-37 (IgR37 cells melanoma; 0.01 μg/ml) | in vitro activity score, IgR-37 (IgR37 cells melanoma; 0.1 μg/ml) | in vitro activity score, IgR-37 (IgR37 cells melanoma; 1.0 μg/ml) | in vitro activity score, IgR-37 (IgR37 cells melanoma; 10 μg/ml) | in vitro activity score, WiDr (WiDr cells; colon tumour; 0.01 μg/ml) | in vitro activity score, WiDr (WiDr cells; colon tumour; 0.1 μg/ml) | in vitro activity score, WiDr (WiDr cells; colon tumour; 10 μg/ml) | in vitro activity score, T 24 ([1]; 0.01 μg/ml) | in vitro activity score, T 24 ([1]; 0.1 μg/ml) | in vitro activity score, T 24 ([1]; 1.0 μg/ml) | in vitro activity score, T 24 ([1]; 10 μg/ml) | in vitro activity score, A 204 ([2]; 0.01 μg/ml) | in vitro activity score, A 204 ([2]; 0.1 μg/ml) | in vitro activity score, A 204 ([2]; 1.0 μg/ml) | in vitro activity score, A 204 ([2]; 10 μg/ml) | other results |
| --- | --- | --- | --- | --- | --- | --- | --- | --- | --- | --- | --- | --- | --- | --- | --- | --- | --- | --- | --- | --- |
| CC(=O)OC/C=C/c1c(COC(C)=O)c2c(n1C)C(=O)C=C(N1CC1)C2=O [E.O. 4, 3-Acetoxymethyl-5-aziridino-1-methyl-2-[1H-indole-4,7-dione]prop-β-en-α-yl acetate] | - | - | + | active | - | - | + | + | - | - | + | - | - | + | + | - | - | + | + | activity at 0.001 µg/mL (lung-NSCLC tumour line; [3]): 64%; activity at 0.01 µg/mL (lung-NSCLC tumour line; [3]): 8%; activity at 0.1 µg/mL (lung-NSCLC tumour line; [3]): 0%; minimal effective concentration (L1210 cells; L1210, read-out: LAD 1 (lowest active dose)): 0.032 to 0.064 µg/mL; minimal effective concentration (L1210 cells; L1210, read-out: LAD 2 (lowest active dose)): 0.064 µg/mL; % T/C (L1210; 15 mg/kg IP single dose): tox.; % T/C (L1210; 25, 30 mg/kg IP single dose): tox.; response vs control in vivo at 20 mg/kg (L1210; Mus musculus, L1210, ip, read-out: % T/C): 100%; MAX T/C (P 388 tumour cells; 10 mg/kg): 135%; T/C at the optimal dose (P 388 tumour cells; optimal dose): ~130% |
| Cn1c(/C=C/CO)c(CO)c2c1C(=O)C=C(N1CC1)C2=O [E.O. 9, 5-Aziridino-3-hydroxymethyl-1-methyl-2-[1H-indole-4,7-dione]prop-β-en-α-ol] | - | + | + | active | + | + | + | + | - | + | + | - | + | + | + | - | + | + | + | in vitro activity score, MCF-7 (MCF7 breast cancer cells; 1.0 μg/ml): +; activity at 0.01 µg/mL (lung-NSCLC tumour line; Homo sapiens, 0.01 μg/ml, read-out: colony formation treated/control (T/C), Lung): 0%; activity at 0.1 µg/mL (lung-NSCLC tumour line; Homo sapiens, 0.1 μg/ml, read-out: colony formation treated/control (T/C), Lung): 0%; activity at 1 µg/mL (lung-NSCLC tumour line; Homo sapiens, 1.0 μg/ml, read-out: colony formation treated/control (T/C), Lung): 0%; minimal effective concentration (L1210 cells; L1210, bioliquid assay, duplicate experiment, read-out: LAD 2 (lowest active dose)): 1.02 µg/mL; minimal effective concentration (L1210 cells; L1210, bioliquid assay, read-out: LAD 1 (lowest active dose)): 0.512 to 1.02 µg/mL; in vitro activity score, WiDr (WiDr cells; colon tumour; 1.0 μg/ml): +; % T/C (L1210; 6, 8, 10 mg/kg IP single dose): tox.; response vs control in vivo at 2 mg/kg (L1210; Mus musculus, L1210, 2 mg/kg IP single dose, read-out: % T/C): 144%; response vs control in vivo at 4 mg/kg (L1210; Mus musculus, L1210, 4 mg/kg IP single dose, read-out: % T/C): 100%; MAX T/C (P 388 tumour cells; 1.5 mg/kg): 106%; LD50 (in vivo): 10 mg/kg |
